Source: patent US7414049B2, “4-oxo-2,3,4,5-tetrahydro-benzo[b][1,4]diazepine derivatives” (Hoffmann-La Roche Inc., priority 2006, dated 2008)
Values after ≈ are worked out from the molar mass of the structure shown.

Columns and labels:
[1] = THESA assay, thermodynamic solubility; format: physicochemical; conditions: 22.5 °C, aqueous buffer, thermodynamic from solid, 50 mM phosphate buffer
Procedure: In addition, the compounds of the present invention have been tested in a THESA assay for determination of the thermodynamic solubility.
Approximately 2 mg of each compound was added in excess to a 50 mM phosphate buffer, at room temperature (22.5±1° C.). Each sample was placed in a microanalysis tube, which was sonicated for 1 h and agitated for 2 h. All suspensions were left overnight. At the next day all pHs were measured with a pH-meter and the samples filtered with a micronic filterplate (MSGVN2250) to separate the solid material from the solution. Then, all solutions were analyzed by HPLC. The calibration line was established by different concentrations of the compound in DMSO. From this regression equation the solubility of the compound was determined.

[2] = Microsome incubation, metabolic stability (mouse); format: in vitro ADME; conditions: for microsomal CLint at 10 μM: pH 7.4, liver microsomes, test compound 10 μM, 37° C., read-out: Intrinsic clearance (mouse)
[3] = Microsome incubation, metabolic stability (human); format: in vitro ADME; conditions: for microsomal CLint at 10 μM: pH 7.4, human liver microsomes 2.0 mg prot/mL, test compound 10 μM, 37° C., read-out: Intrinsic clearance (human)
Procedure: The compounds of formula I of the present invention are further characterized by high metabolic stability. This parameter is a prerequisite for good bioavailability, which is necessary to obtain medicaments with acceptable in-vivo activity. The metabolic stability has been tested by the following method:
Incubation mixtures consisted of liver microsomes (rat 1.0 mg prot/mL or human 2.0 mg prot/mL), test compound 10 μM, MgCl2 (3.3 mM), and an NADPH regenerating system consisting of glucose-6-phosphate dehydrogenase, NADPH and glucose-6-phosphate (equivalent to 1 mM NADPH) in a total volume of 1.0 mL of potassium phosphate buffer 100 mM pH 7.4. Reactions were initiated by addition of the NADPH regenerating system at 37° C. At the time of 1, 5, 9, 13, 17, 21, 25, and 29 min a 5 μL aliquot was directly analysed on a HPLC-MS/MS system consisting of a HP 1100 quaternary pump with degasser and a PE-Sciex API-2000 MS/MS spectrometer. The analytical column was a Waters Symmetry Shield RP8 (2.1*50 mm with a […] particle size). A polarity non linear gradient from phase A (MeOH/Ac. Form. 1% 20/80) to phase B (MeOH) was applied for a total run time of 2 minutes at a flow rate of 0.25 mL/min. The PE-Sciex API-2000 MS/MS spectrometer was used for detection of the parent compound. In vivo metabolic clearance was predicted according to published procedures [Houston, Biochem. Pharmacol. 47:1469-1479 (1994)]. In brief, the intrinsic clearance (Clearance, see table below) is calculated from the measured in vitro half-life taking into account incubation volume and microsomal protein used for the in vitro incubation. The intrinsic clearance is expressed in terms of μl/min/mg microsomal protein. For in vivo extrapolations, the hepatic extraction ratio (E) was calculated. Here it is reported the % MAB value which is equal to 1-E. The MAB (maximal achievable bioavailability) values express the maximal bioavailability that one can achieve with the given clearance values.

[4] = maximal achievable bioavailability = 1-E, extrapolated from intrinsic clearance
[5] = comparison table, room temperature

Structure (SMILES): CC(O)(C(=O)NCC(F)(F)C(F)(F)F)C(=O)N[C@H]1CN(C(=O)OCC(F)(F)F)c2ccccc2NC1=O (single isomer, unassigned) [Example 10, (S)-3-[(R or S)-2-Hydroxy-2-(2,2,3,3,3-pentafluoro-propylcarbamoyl)-propionylamino]-4-oxo-2,3,4,5-tetrahydro-benzo[b][1,4]diazepine-1-carboxylic acid 2,2,2-trifluoro-ethyl ester and (S)-3-[(S or R)-2-Hydroxy-2-(2,2,3,3,3-pentafluoro-propylcarbamoyl)-propionylamino]-4-oxo-2,3,4,5-tetrahydro-benzo[b][1,4]diazepine-1-carboxylic acid 2,2,2-trifluoro-ethyl ester]
- solubility thermodynamic ([1]; room temperature (22.5±1° C.)): 74 µg/mL (≈ 134 µM)
- MAB (mouse) [2, 4]: 85.5%
- microsomal CLint at 10 μM [2]: 5.4 µL/min/mg
- MAB (human) [3, 4]: 100.0%

Structure (SMILES): CC(O)(C(=O)NCC(F)(F)C(F)(F)F)C(=O)N[C@H]1CN(C(=O)OCC(F)(F)F)c2ccccc2N(CC(F)(F)F)C1=O (single isomer, unassigned) [Example 11]
- solubility thermodynamic [1, 5]: 37 µg/mL (≈ 58.5 µM)
- MAB (mouse) ([2]; comparison table): 74.9%
- MAB (mouse) [2, 4]: 74.9%
- microsomal CLint at 10 μM [2]: 10.6 µL/min/mg
- MAB (human) ([3]; comparison table): 100.0%
- MAB (human) [3, 4]: 100.0%

Structure (SMILES): CC(O)(C(=O)NCC(F)(F)C(F)(F)F)C(=O)N[C@H]1CN(C(=O)OCC(F)(F)F)c2ccccc2N(CCO)C1=O (single isomer, unassigned) [Example 12, (S)-5-(2-Hydroxy-ethyl)-3-[(S or R)-2-hydroxy-2-(2,2,3,3,3-pentafluoro-propylcarbamoyl) -propionylamino]-4-oxo-2,3,4,5-tetrahydro-benzo[b][1,4]diazepine-1-carboxylic acid 2,2,2-trifluoro-ethyl ester]
- solubility thermodynamic ([1]; room temperature (22.5±1° C.)): 3230 µg/mL (≈ 5430 µM)
- MAB (mouse) [2, 4]: 97.2%
- microsomal CLint at 10 μM [2]: 0.9 µL/min/mg
- MAB (human) [3, 4]: 84.3%
- microsomal CLint at 10 μM [3]: 2.9 µL/min/mg

Structure (SMILES): CC(O)(C(=O)NCC(F)(F)C(F)(F)F)C(=O)N[C@H]1CN(C(=O)OCCO)c2ccccc2N(CCO)C1=O (single isomer, unassigned) [Example 14, (S)-5-(2-Hydroxy-ethyl)-3-[(S or R)-2-hydroxy-2-(2,2,3,3,3-pentafluoro-propylcarbamoyl)-propionylamino]-4-oxo-2,3,4,5-tetrahydro-benzo[b][1,4]diazepine-1-carboxylic acid 2-hydroxy-ethyl ester]
- solubility thermodynamic ([1]; room temperature (22.5±1° C.)): 5180 µg/mL (≈ 9320 µM)
- MAB (mouse) [2, 4]: 72.1%
- microsomal CLint at 10 μM [2]: 12.3 µL/min/mg
- MAB (human) [3, 4]: 53.3%
- microsomal CLint at 10 μM [3]: 13.6 µL/min/mg

Structure (SMILES): CC(C)(C(=O)NCC(F)(F)C(F)(F)F)C(=O)N[C@H]1CN(C(=O)OCC(F)(F)F)c2ccccc2N(CC(F)(F)F)C1=O [reference compound]
- solubility thermodynamic [1, 5]: 16 µg/mL (≈ 25.4 µM)
- MAB (mouse) ([2]; comparison table): 28.4%
- MAB (human) ([3]; comparison table): 19.6%

Structure (SMILES): CC(C)(C(=O)NCC(F)(F)C(F)(F)F)C(=O)N[C@H]1CN(CC(F)(F)F)c2ccccc2NC1=O [reference compound]
- solubility thermodynamic [1, 5]: < 1 µg/mL
- MAB (mouse) ([2]; comparison table): 21.8%
- MAB (human) ([3]; comparison table): 43.1%
